# Measured values reported in patent US20260327242A1, “Platform and Scaffold for FAP Targeting Agents” (Erasmus University Medical Center Rotterdam, priority 2022, published 2026).
# Experiments:
# [1] = test system: U-87 cells; test: Cytotoxicity assay in FAP+ U-87 cells (resazurin); format: cell-based
# Protocol: In 96-well plates, U-87 cells (3×10^3) were seeded in each well and incubated at 37° C. and 5% CO2 for 24 h. The medium was removed and the wells were washed once with PBS. The cytotoxic drug (positive control) or the eFAP conjugate containing the drug were prepared at various concentrations (i.e., 1, 10, 100, 1000 nM) in DMEM culture medium, supplemented with 2 mM L-glutamine, 10% FBS, 50 units/mL penicillin, and 50 μg/mL streptomycin. Medium was used as a negative control. Cells were incubated with 100 μL of the tested compounds for 1, 24, 48, and 72 h. After incubation, medium was removed and each well was washed once with PBS. Next, 100 μL of 10% resazurin solution in culture medium was added to each well and incubated for 2.5 h. Fluorescence measurements were carried out using a microplate reader at 544 nm excitation and 590 nm emission.
# [2] = molecular target: T1, human FAP (hFAP) (Homo sapiens, UniProt Q12884); test: In vitro inhibition assay on human FAP (Z-GP-AMC substrate); format: biochemical; settings: 20 μM Z-GP-AMC, 20 nM FAP, pH 7.4, room temperature
# T1 sequence (Q12884 26-760 limits assumed): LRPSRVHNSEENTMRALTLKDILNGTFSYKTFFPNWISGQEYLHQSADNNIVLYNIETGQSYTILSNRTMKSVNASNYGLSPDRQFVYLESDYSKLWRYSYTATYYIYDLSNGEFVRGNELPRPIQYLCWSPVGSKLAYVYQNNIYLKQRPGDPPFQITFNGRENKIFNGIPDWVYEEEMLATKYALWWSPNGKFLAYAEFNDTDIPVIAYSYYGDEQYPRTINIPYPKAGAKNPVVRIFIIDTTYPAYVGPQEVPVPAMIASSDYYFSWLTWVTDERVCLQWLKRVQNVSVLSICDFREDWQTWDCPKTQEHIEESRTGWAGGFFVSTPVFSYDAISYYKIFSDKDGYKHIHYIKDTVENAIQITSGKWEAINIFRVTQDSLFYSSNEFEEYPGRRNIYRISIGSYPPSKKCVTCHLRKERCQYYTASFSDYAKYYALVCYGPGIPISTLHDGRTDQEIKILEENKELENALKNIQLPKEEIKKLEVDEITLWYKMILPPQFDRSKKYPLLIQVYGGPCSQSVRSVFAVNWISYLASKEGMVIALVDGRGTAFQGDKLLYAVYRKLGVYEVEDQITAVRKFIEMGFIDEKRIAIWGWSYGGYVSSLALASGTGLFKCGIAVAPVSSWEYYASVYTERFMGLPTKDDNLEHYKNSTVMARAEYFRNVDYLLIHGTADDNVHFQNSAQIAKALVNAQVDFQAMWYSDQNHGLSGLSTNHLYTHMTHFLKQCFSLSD
# Protocol: (§1) Enzymatic activity of human FAP (hFAP) and mouse FAP (mFAP) on the Z-GP-AMC substrate was measured at room temperature on a Hidex microplate reader by monitoring the fluorescence at an excitation wavelength of 360 nm and an emission wavelength of 465 nm. The reaction mixture contained 20 μM substrate, 20 nM FAP, assay buffer (50 mM Tris, 100 mM NaCl, 1 mM EDTA, pH 7.4) and tested compound (serial dilution from 10-6 to 10^−12) in a total volume of 50 μL.
# [3] = molecular target: T2, mouse FAP (mFAP) (Mus musculus, UniProt P97321); test: In vitro inhibition assay on mouse FAP (Z-GP-AMC substrate); format: biochemical; settings: 20 μM Z-GP-AMC, 20 nM FAP, pH 7.4, room temperature
# T2 sequence (P97321 26-761 limits assumed): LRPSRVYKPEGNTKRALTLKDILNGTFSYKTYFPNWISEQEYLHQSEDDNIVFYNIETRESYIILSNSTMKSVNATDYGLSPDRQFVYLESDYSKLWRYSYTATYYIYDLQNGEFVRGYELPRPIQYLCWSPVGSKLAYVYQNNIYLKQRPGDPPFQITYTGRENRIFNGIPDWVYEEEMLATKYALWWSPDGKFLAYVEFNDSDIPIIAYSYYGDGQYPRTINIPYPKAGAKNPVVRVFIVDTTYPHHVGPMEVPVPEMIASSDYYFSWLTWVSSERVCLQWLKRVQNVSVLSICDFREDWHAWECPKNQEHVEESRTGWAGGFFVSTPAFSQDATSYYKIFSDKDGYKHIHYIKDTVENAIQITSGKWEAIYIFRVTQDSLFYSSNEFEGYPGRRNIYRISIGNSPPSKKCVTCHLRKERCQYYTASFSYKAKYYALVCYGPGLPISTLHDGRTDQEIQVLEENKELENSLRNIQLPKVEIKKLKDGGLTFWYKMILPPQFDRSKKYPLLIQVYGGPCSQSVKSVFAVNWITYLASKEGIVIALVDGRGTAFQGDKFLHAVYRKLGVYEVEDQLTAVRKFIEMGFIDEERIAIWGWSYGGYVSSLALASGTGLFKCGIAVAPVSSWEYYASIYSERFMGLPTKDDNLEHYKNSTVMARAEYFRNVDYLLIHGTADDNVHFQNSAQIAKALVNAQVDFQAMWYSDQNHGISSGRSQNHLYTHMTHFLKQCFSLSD
# Protocol: as §1
# Results with FAPI-46 obtained in the same assay is included for comparison.
# [4] = test system: U-87 tumor; test: Near-infrared fluorescence imaging of U-87 tumor bearing mice; format: in vivo, mouse; settings: 2 nmol i.v., imaging 1 h, excised tumors 2.5 h
# From the text: Six-week-old male Balb/c nu/nu-specific and opportunistic pathogen-tree (SOPF) mice were housed in individually ventilated cages, with 4 mice per cage. Upon arrival, mice were acclimated for 1 week, with access to food and water ad libitum. Mice were subcutaneously inoculated on the right shoulder with U-87 or HT-1080.hFAP cells (1×10^6 cells). Xenografts were allowed to grow until they reached an appropriate size at the start of the studies. All animal experiments were approved by the Animal Welfare Committee of the Erasmus MC and were conducted in agreement with institutional guidelines (license number: AVD101002017867).
# Evaluation of targeting performance of eFAP-17 in near-infrared fluorescence imaging of U-87 tumor bearing mice after intravenous injection of 2 nmol of the probe are given in FIG. 9 showing A) NIRF imaging of U-87 tumor bearing mice at 1 h after intravenous injection of 2 nmol of CW800 (left, negative control) or eFAP-17 (right) and B) image of excised tumors 2.5 h post administration of CW800 (left) or eFAP-17 (right).
smiles,measurement,setting,value
"COc1cc2cc(c1Cl)N(C)C(=O)C[C@H](OC(=O)[C@H](C)N(C)C(=O)CCS)[C@]1(C)O[C@H]1[C@H](C)[C@@H]1C[C@@](O)(NC(=O)O1)[C@H](OC)/C=C/C=C(\C)C2 [DM1, Mertansine, reference compound]",cell viability,"[1]; FAP+ U-87 cells, single dose of eFAP-18 (1 μM) compared with the parent drug DM1",40%
"COc1cc2cc(c1Cl)N(C)C(=O)CC(OC(=O)C(C)N(C)C(=O)CCSSCCC(=O)NCCCOc1cccc3c(C(=O)NCC(=O)N4CC(F)(F)CC4C#N)ccnc13)C1(C)OC1C(C)C1CC(O)(NC(=O)O1)C(OC)C=CC=C(C)C2 [eFAP-18, (1^4S,1^6S,3^2S,3^3S,2R,4S,10E,12E,14R)-8^6-chloro-1^4-hydroxy-8^5,14-dimethoxy-3^3,2,7,10-tetramethyl-1^2,6-dioxo-7-aza-1(6,4)-oxazinana-3(2,3)-oxirana-8(1,3)-benzenacyclotetradecaphane-10,12-dien-4-yl N-(3-((3-((3-((4-((2-((S)-2-cyano-4,4-difluoropyrrolidin-1-yl)-2-oxoethyl)carbamoyl)quinolin-8-yl)oxy)propyl)amino)-3-oxopropyl)disulfaneyl)propanoyl)-N-methyl-L-alaninate]",IC50,[2],2.6 ± 0.8 nM
same,IC50,[3],2 ± 0.1 nM
same,viability at 1 µM,"[1]; Homo sapiens, U-87 MG, read-out: cell viability",~25%
"CC1(C)C(/C=C/C2=C(Oc3ccc(S(=O)(=O)O)cc3)C(=C/C=C3/N(CCCCCC(=O)NCCCOc4cccc5c(C(=O)NCC(=O)N6CC(F)(F)C[C@H]6C#N)ccnc45)c4ccc(S(=O)(=O)O)cc4C3(C)C)/CCC2)=[N+](CCCCS(=O)(=O)[O-])c2ccc(S(=O)(=O)O)cc21 [eFAP-17, 4-(2-((E)-2-((E)-3-(2-((E)-1-(6-((3-((4-((2-((S)-2-Cyano-4,4-difluoropyrrolidin-1-yl)-2-oxoethyl)carbamoyl)quinolin-8-yl)oxy)propyl)amino)-6-oxohexyl)-3,3-dimethyl-5-sulfoindolin-2-ylidene)ethylidene)-2-(4-sulfophenoxy)cyclohex-1-en-1-yl)vinyl)-3,3-dimethyl-5-sulfo-3H-indol-1-ium-1-yl)butane-1-sulfonate]",IC50,[3],5 ± 0.2 nM
same,"accumulation in healthy tissues, NIRF imaging (in words)",[4],low accumulation in healthy tissues
same,"tumor uptake, NIRF imaging (in words)",[4],high uptake in the FAP overexpressing tumor
"N#C[C@@H]1CC(F)(F)CN1C(=O)CNC(=O)c1ccnc2c(OCCCNC(=O)CCSc3nnc(SCCC(=O)NCCCOc4cccc5c(C(=O)NCC(=O)N6CC(F)(F)C[C@H]6C#N)ccnc45)c4c3CCCC(OC(=O)NCCCNC(=O)CCC(C(=O)O)N3CCN(CC(=O)O)CCN(CC(=O)O)CCN(CC(=O)O)CC3)CC4)cccc12 (stereo partly drawn) [eFAP-20, 2,2′,2″-(10-(4-((3-((((1,4-bis((3-((3-((4-((2-((S)-2-cyano-4,4-difluoropyrrolidin-1-yl)-2-oxoethyl)carbamoyl)quinolin-8-yl)oxy)propyl)amino)-3-oxopropyl)thio)-5,6,7,8,9,10-hexahydrocycloocta[d]pyridazin-7-yl)oxy)carbonyl)amino)propyl)amino)-1-carboxy-4-oxobutyl)-1,4,7,10-tetraazacyclododecane-1,4,7-triyl)triacetic acid]",IC50,[2],1.15 nM
same,IC50,[3],1.11 nM
"CC1(C)C(=CC=C2CCCC(C=CC3=[N+](CCCCS(=O)(=O)[O-])c4ccc(S(=O)(=O)O)cc4C3(C)C)=C2Oc2ccc(S(=O)(=O)O)cc2)N(CCCCCC(=O)NCC(O)CC(=O)NCC(O)CC(=O)NCCCOc2cccc3c(C(=O)NCC(=O)N4CC(F)(F)C[C@H]4C#N)ccnc23)c2ccc(S(=O)(=O)O)cc21 (stereo partly drawn) [eFAP-24, 2-((E)-2-((E)-3-(2-((E)-1-(6-((4-((4-((3-((4-((2-((S)-2-cyano-4,4-difluoropyrrolidin-1-yl)-2-oxoethyl)carbamoyl)quinolin-8-yl)oxy)propyl)amino)-2-hydroxy-4-oxobutyl)amino)-2-hydroxy-4-oxobutyl)amino)-6-oxohexyl)-3,3-dimethyl-5-sulfonatoindolin-2-ylidene)ethylidene)-2-(4-sulfonatophenoxy)cyclohex-1-en-1-yl)vinyl)-3,3-dimethyl-1-(4-sulfonatobutyl)-3H-indol-1-ium-5-sulfonate]",IC50,[2],3.04 ± 0.18 nM
same,IC50,[3],2.96 ± 0.15 nM
